In US20260027243A1, “AMPHIPHILIC COMPOUNDS FOR ATTENUATING NEUROTOXICITY OF AMYLOID-beta OLIGOMERS AND DIAGNOSTIC METHODS” (THE BOARD OF TRUSTEES OF THE UNIVERSITY OF ILLINOIS, priority 2022, published 2026):

What was measured:
Aβ42 fibrils = biological target: T1, Aβ42 fibrils (Homo sapiens, UniProt P05067); assay: Fluorescence saturation binding assay with Aβ42 fibrils; conditions: read-out: Kd value to Aβ42 fibrils
T1 construct: commercial Aβ42 monomer powder (from GL biochem); purchased GL biochem
Method: Preparation of the Aβ42 Fibrils and Aβ42 Oligomers. Aβ42 fibrils: 1 mg of commercial Aβ42 monomer powder (from GL biochem) was dissolved in 1 mL 1,1,1,3,3,3-hexafluoro-2-propanol (HFIP) at room temperature and incubated for 1 h. The resulting solution was divided equally into two Eppendorf tubes. The solution in each Eppendorf tube containing 0.5 mg Aβ42 monomer was then evaporated overnight and dried by vacuum centrifuge to generate monomeric films. […] Aβ42 fibrils solution was prepared by dissolving the 0.5 mg monomeric films in 1.1 mL PBS buffer (with final DMSO concentration less than 1%) and stirring at 37° C. for 3 days.
(§1) In Vitro Saturation Binding Studies with Aβ42 Fibrils and Aβ42 Oligomers. To a solution of increasing concentrations of compounds, a fixed concentration of the generated aggregated Aβ42 fibrils or Aβ42 oligomers solutions (5 to 15 NM) was added to yield a total volume of 100 μL. Nonspecific binding was determined […]. The mixture was incubated for 15 min at room temperature. All fluorescence data were obtained on a SpectraMax M2e plate reader (Molecular Devices). The fluorescent intensity was measured at the corresponding emission wavelength of each compound, and the Kd binding curves were generated by GraphPad Prism 8.0 with one site-specific binding model. Equation: Y=Bmax*X/(Kd+X).

Aβ42 oligomers = biological target: T2, Aβ42 oligomers (Homo sapiens, UniProt P05067); assay: Fluorescence saturation binding assay with Aβ42 oligomers; conditions: read-out: Kd value to Aβ42 oligomers
T2 construct: commercial Aβ42 monomer powder (from GL biochem); purchased GL biochem
Method: Aβ42 oligomers: The 0.5 mg monomeric films were dissolved in 1.1 mL PBS buffer (with final DMSO concentration less than 1%) and incubated at 4° C. overnight. The resulting solution was then centrifuged at 3000 rpm for 15 mins to remove the insoluble aggregates. The clear supernatant was then used for the following experiments. Aβ42 oligomers concentration was checked by measuring the absorbance of the supernatant at 280 nm.
as §1

[1] = Log D by octanol-PBS partition; assay type: physicochemical; conditions: DCM compounds
Method: Log D measurements. The Log D value was measured following a published procedure using slight modifications. In general, compounds in 0.5 mL octanol was subjected to partition with 0.5 mL octanol-saturated PBS. The whole mixture was stirred vigorously for 5 min, and centrifuged at 2,000 rpm for 5 min. The top octanol layer was separated for later fluorescence measurement. The remaining PBS layer was partitioned with 0.5 mL PBS-saturated octanol, and the second top octanol layer was then separated after vigorous stirring and centrifuging at 2,000 rpm for another 5 min. The two octanol layers' fluorescence spectra were recorded. The log D value was calculated by the fluorescence intensity ratio at the compounds' emission wavelength for the above two octanol extractions.

[2] = system: human neuroblastoma cells (SH-SY5Y); assay: Cytotoxicity of DCM compounds in SH-SY5Y cells; assay type: cell-based; conditions: at 2 μM
Source text: Fluorescence Imaging of 5×FAD Mouse Brain Sections and blood-brain barrier (BBB) permeability. To confirm the developed compounds can also bind to native Aβ aggregates, we performed fluorescence imaging studies and colocalization experiments on 5×FAD mouse brain sections. […] This further supports that the compounds are selective and can bind to native soluble Aβ oligomers. Before investigating the blood-brain barrier (BBB) permeability of the developed compounds, their neurotoxicity was measured first (FIG. 12). […] DCM-OH-2 leads to less than 80% cell viability even at 2 μM, which is probably due to its poor solubility. Nevertheless, the DCM-OH-2-DT was chosen as the candidate to test the blood-brain barrier (BBB) permeability. 12-month-old AD mice were treated with compound DCM-OH-2-DT (0.1 mg/Kg) for 10 days via intraperitoneal injection. At the end of treatment, mice brains were harvested and colocalization experiments were performed on the mice brain sections.

T1 sequence (P05067 672-713 limits assumed): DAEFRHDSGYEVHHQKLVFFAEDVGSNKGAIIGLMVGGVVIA
T2 sequence (P05067 672-713 limits assumed): as above

Kd (Aβ42 fibrils): 80 nM
Kd (Aβ42 oligomers): 120 nM
logD [1]: 0.96 ± 0.07
Structure (SMILES): N#CC(C#N)=C1C=C(/C=C/C=C/c2ccc(O)cc2)Oc2ccccc21 [DCM-OH-2]
cell viability [2]: less than 80%
